The species entered for data set [1] is Mus musculus. Description: Inhibition of Hedgehog signaling pathway in mouse C3H10T1/2 cells assessed as reduction in oxysterol-induced Gli1 mRNA expression at 5 uM after 24 hrs by q-PCR analysis relative to oxysterol alone. It counts as cell-based.
The target in data set [2] is T1, Cyp24A1 mRNA (readout of VDR activation) (Mus musculus, UniProt P48281).
T1 sequence (P48281 whole entry): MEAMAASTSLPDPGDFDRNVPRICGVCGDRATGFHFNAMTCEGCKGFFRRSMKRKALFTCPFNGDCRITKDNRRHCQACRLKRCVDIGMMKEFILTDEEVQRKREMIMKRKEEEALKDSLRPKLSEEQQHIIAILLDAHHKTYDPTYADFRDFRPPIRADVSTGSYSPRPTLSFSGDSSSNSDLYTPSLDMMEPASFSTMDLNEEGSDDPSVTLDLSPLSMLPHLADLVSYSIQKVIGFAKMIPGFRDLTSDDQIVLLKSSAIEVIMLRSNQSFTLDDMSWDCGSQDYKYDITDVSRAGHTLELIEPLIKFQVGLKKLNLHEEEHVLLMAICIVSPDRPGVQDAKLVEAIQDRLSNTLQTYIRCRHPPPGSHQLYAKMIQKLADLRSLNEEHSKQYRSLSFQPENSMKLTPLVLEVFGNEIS
Description: Activation of VDR in mouse C3H10T1/2 cells assessed as change in Cyp24A1 mRNA expression at 5 uM after 24 hrs by q-PCR analysis relative to control. The settings on record: read-out: FC. It counts as ADME, cell-based.

Data set [3] is described as follows: (§1) Inhibition of Hedgehog signaling pathway in mouse C3H10T1/2 cells assessed as reduction in oxysterol-induced Gli1 mRNA expression after 24 hrs by q-PCR analysis. Type of data set: cell-based. The conditions noted are these: C3H 10T1/2, 24 h.
The species named for data set [4] is Mus musculus. Described as §1. It counts as cell-based.
The nature of data set [5]: Inhibition of Hedgehog signaling pathway in mouse ASZ001 cells assessed as reduction in oxysterol-induced Gli1 mRNA expression after 24 hrs by q-PCR analysis. The conditions noted are these: ASZ001, 24 h. It counts as cell-based.
For data set [6], the target named is T1, Cyp24A1 mRNA (readout of VDR activation). Description: Activation of VDR in mouse ASZ001 cells assessed as change in Cyp24A1 mRNA expression at 5 uM after 24 hrs by q-PCR analysis relative to control. It counts as ADME, cell-based. The settings on record: read-out: FC.

By inhibition is commonly meant the relative decrease from the control value, in per cent. Consider `CC(C)CCC[C@@H](C)[C@H]1CC[C@H]2[C@@H](OC(=O)c3cccc(O)c3)C[C@H](C3CCCCC3)C[C@]12C`, for which the inhibition in data set [1] was 92%. The fold induction at 24 h, 5 µM in data set [2] came out at 2.8.

Turning to `CC(C)CCC[C@@H](C)[C@H]1CC[C@H]2[C@@H](OC(=O)c3cccc(O)c3)C[C@H](Cc3ccccc3)C[C@]12C`, the inhibition in data set [1] stood at 85%. Moreover, in data set [2], the fold induction at 24 h, 5 µM was determined as 3.6.

Broadly, the IC50 is the concentration needed to halve the response being measured. For `CC(C)CCC[C@@H](C)[C@H]1CC[C@H]2[C@@H](Nc3ccc(O)cc3)C[C@H](CCO)C[C@]12C`, the results for the inhibition in data set [1] and in data set [4] were 1.1% and “Dose-dependent effect”, respectively. The IC50 worked out at 2.7 µM in data set [3] and 1 µM in data set [5]. In addition, the fold induction at 24 h, 5 µM is 7.2 in data set [2] and 2 in data set [6].

Consider `CC(C)CCC[C@@H](C)[C@H]1CC[C@H]2[C@@H](OC(=O)c3cccc(O)c3)C[C@H](c3ccccc3)C[C@]12C`, for which, in data set [1], the inhibition came to 71%. In addition, in data set [2], the fold induction at 24 h, 5 µM came to 2.3.

For the compound `C#CCCC(=O)OCC[C@H]1C[C@H](OC(=O)c2cccc(O)c2)[C@@H]2CC[C@H]([C@H](C)CCCC(C)C)[C@@]2(C)C1`, the inhibition was 16% in data set [1] and “Dose-dependent effect” in data set [4]. For the same compound, the IC50 was 6.3 µM in data set [3] and 7.5 µM in data set [5]. Moreover, the fold induction at 24 h, 5 µM in data set [2] turned out to be 4.8; in data set [6], 0.96.

`C=C[C@H]1CC(=O)[C@@H]2CC[C@H]([C@H](C)CCCC(C)C)[C@@]2(C)C1`: the inhibition in data set [1] was 28%. For the same compound, in data set [2], the fold induction at 24 h, 5 µM was 19.

For the compound `CC[C@@H]1C[C@H](OC(=O)c2cccc(O)c2)[C@@H]2CC[C@H]([C@H](C)CCCC(C)C)[C@@]2(C)C1`, the results for the inhibition in data set [1] and in data set [4] were 2% and “Dose-dependent effect”, respectively. Further, the IC50 in data set [3] worked out at 0.92 µM; in data set [5], 5.2 µM. Moreover, the values for the fold induction at 24 h, 5 µM in data set [2] and in data set [6] were 3.6 and 1.3, respectively.

For the compound `CC(C)CCC[C@@H](C)[C@H]1CC[C@H]2[C@@H](O)C[C@H](CCO)C[C@]12C`, the inhibition in data set [1] was 39%; in data set [4], “Dose-dependent effect”. In addition, the IC50 in data set [3] amounted to 4.7 µM. Besides, the fold induction at 24 h, 5 µM in data set [2] was 17.

As for `CC(C)CCC[C@@H](C)[C@H]1CC[C@H]2[C@@H](OC(=O)c3cccc(O)c3)C[C@H](CCO)C[C@]12C`, the values for the inhibition in data set [1] and in data set [4] were 8.7% and “Dose-dependent effect”, respectively. Moreover, the IC50 was found to be 2 µM in data set [3] and 4.1 µM in data set [5]. Moreover, the fold induction at 24 h, 5 µM came out at 9 in data set [2] and 1.1 in data set [6].

Source of the values: ChEMBL document CHEMBL4052810, “Synthesis and evaluation of vitamin D3 analogues with C-11 modifications as inhibitors of Hedgehog signaling” (Bioorg Med Chem Lett, 2017).
